According to patent US20130254944A1, “Herbicide Tolerant Soybeans and Methods of Use” (PIONEER HI BRED INTERNATIONAL INC, priority 2012, published 2013):

How the values were obtained:
Format in all cases: in vivo
[1] = system: soybean having the Als2 mutation; assay: Greenhouse postemergence test of ALS-inhibiting herbicides, soybean with Als2 mutation; details: for Avg response (% phytotoxicity), Trait Als2: Table 2
Protocol: (§1) Soybean lines having wild type als1 & 2 genes, the Als1 mutation, the Als2 mutation, or both the Als1 and Als2 mutations were evaluated for their response to various herbicides. Two seeds from each line were planted into 4-inch pots containing Redi-Earth potting mix (Sun Gro Horticulture Canada Ltd. 52130 RR65, Seba Beach, Alberta TOE 2B0), with two replications planted for each treatment. Pots were placed in flats at 15 pots/flat, and the resulting plants were grown in a greenhouse environment supplemented with lighting (16 hr photoperiod) for the duration of the test. Selected herbicides representing the mode of action that inhibits the acetolactate synthase enzyme, also known as the acetohydroxyacid synthase enzyme, were applied postemergence to soybean when soybean plants were at the V2 growth stage, which is the stage at which the first two trifoliolate leaves were expanded.
(§2) Eleven active ingredients representing the five chemical families with herbicidal activity on the acetolactate synthase enzyme were tested. These herbicides can cause a phytotoxic response in wild type soybean plants. The five chemical families tested were sulfonylaminocarbonyltriazolinone (also known as triazolinone), imidazolinone, sulfonylurea, pyrimidinylthiobenzoate, and triazolopyrimidine. Application rates ranged from 0.5 times to eight times the currently labeled application rate for each active ingredient with spray application volume at 30 gallons/acre. The application rates tested were 0.5×, 1×, 2×, 4× and 8× the label rate for each herbicide. Herbicidal active ingredients were applied as formulated materials dispersed in water containing 0.25% nonionic surfactant (Trend® 90).
(§3) The test was evaluated by visually scoring plant phenotype 14 days after the herbicides were applied. Controls consisted of soybean plants of the same variety that received no herbicide treatments for each of all the varieties tested. Soybean response was recorded on a zero to 100 visual scale in which zero is no phytotoxic response and 100 is plant death fourteen days after the herbicides were applied. Soybean response (percent phytotoxicity) to postemergence applications of herbicides inhibiting the acetolactate synthase enzyme test results are shown in Table 1.
(§4) Results in Table 1 were evaluated using the isobole method for analyzing interactions. […] Here the biologically active agents that are being assessed for interaction (synergy) are gene mutations in soybean. The effectiveness of the genes in providing improved tolerance to ALS-inhibiting herbicides was assessed by applying increasing doses of herbicides to each soybean line with its mutation(s).
(§5) An isobole reduces a dose response surface in three dimensional space to a two dimensional plot by fixing a defined response level (e.g., 50% response). The isobole plot is a graph in the Cartesian plane with a straight line connecting the isoeffective rates of the individual components of the combination. This straight line represents expected responses for zero interactive combinations. The isoeffective rate used to create the isobole is often the EC50, the rate estimated to elicit 50% response, but other ECx values can be used. Since the isobole method is based on the potency of the components of the combination, an experimental design testing a range of rates expected to elicit the full range of responses (e.g., 0 to maximum response) is best. (Ferry et al. (2005) 2005 Conference on Applied Statistics in Agriculture Proceedings pp 33-50, Manhattan, Kans., Kansas State Univ.; Green and Streibig (1993) Herbicide Mixtures, pp 117-134 in Herbicide Bioassays, Streibig and Hudsk Eds, CRC, Boca Raton, Fla.).
(§6) Loglogistic dose response curves were fit to percent phytotoxicity response data using log 10 of dose (McCullagh and Nelder (1989) Generalized Linear Models, Chapman & Hall, London). Curves were fit using the logit link with normal errors. […]

[2] = system: soybean having both the Als1 and Als2 mutations; assay: Greenhouse postemergence test of ALS-inhibiting herbicides and isobole analysis, soybean with Als1 and Als2 mutations; details: for Avg response (% phytotoxicity), Trait Als1 + Als2: Table 2
Protocol: as §1, §2, §3, §4, §5, §6

wild type soybean = assay: Greenhouse postemergence test of ALS-inhibiting herbicides, wild type soybean
Protocol: as §1, §2, §3

[3] = system: soybean having the Als1 mutation; assay: Greenhouse postemergence test of ALS-inhibiting herbicides, soybean with Als1 mutation; details: for Avg response (% phytotoxicity), Trait Als1: Table 2
Protocol: as §1, §2, §3, §4, §5, §6

[4] = 35 g ai/ha postemergence at V2, scored 14 days after application
[5] = 70 g ai/ha postemergence at V2, scored 14 days after application
[6] = 140 g ai/ha postemergence at V2, scored 14 days after application
[7] = 280 g ai/ha postemergence at V2, scored 14 days after application
[8] = 560 g ai/ha postemergence at V2, scored 14 days after application
[9] = 8.75 g ai/ha postemergence at V2, scored 14 days after application
[10] = 17.5 g ai/ha postemergence at V2, scored 14 days after application
[11] = rate of herbicide estimated to cause 10% phytotoxic response, loglogistic fit

COc1cc(OC)nc(Sc2cccc(Cl)c2C(=O)O)n1 [Pyrithiobac sodium]
Soybean response (percent phytotoxicity), Als2 [1, 4]: 20% | Avg response (% phytotoxicity), Trait Als2 ([1]; 35 g ai/ha): 40% | Soybean response (percent phytotoxicity), Als2 [1, 5]: 30% | Avg response (% phytotoxicity), Trait Als2 ([1]; 70 g ai/ha): 60% | Soybean response (percent phytotoxicity), Als2 [1, 6]: 40% | Avg response (% phytotoxicity), Trait Als2 ([1]; 140 g ai/ha): 80% | Soybean response (percent phytotoxicity), Als2 [1, 7]: 45% | Avg response (% phytotoxicity), Trait Als2 ([1]; 280 g ai/ha): 92.5% | Soybean response (percent phytotoxicity), Als2 [1, 8]: 49% | Avg response (% phytotoxicity), Trait Als2 ([1]; 560 g ai/ha): 98% | Soybean response (percent phytotoxicity), Als1 + Als2 [2, 4]: 0% | Avg response (% phytotoxicity), Trait Als1 + Als2 ([2]; 35 g ai/ha): 0% | Soybean response (percent phytotoxicity), Als1 + Als2 [2, 5]: 5% | Avg response (% phytotoxicity), Trait Als1 + Als2 ([2]; 70 g ai/ha): 5% | Soybean response (percent phytotoxicity), Als1 + Als2 [2, 6]: 25% | Avg response (% phytotoxicity), Trait Als1 + Als2 ([2]; 140 g ai/ha): 25% | Soybean response (percent phytotoxicity), Als1 + Als2 [2, 7]: 45% | Avg response (% phytotoxicity), Trait Als1 + Als2 ([2]; 280 g ai/ha): 45% | Soybean response (percent phytotoxicity), Als1 + Als2 [2, 8]: 50% | Avg response (% phytotoxicity), Trait Als1 + Als2 ([2]; 560 g ai/ha): 50% | Soybean response (percent phytotoxicity), Wild type (wild type soybean; [4]): 70% | Soybean response (percent phytotoxicity), Wild type (wild type soybean; [5]): 95% | Soybean response (percent phytotoxicity), Wild type (wild type soybean; [6]): 98% | Soybean response (percent phytotoxicity), Wild type (wild type soybean; [7]): 98% | Soybean response (percent phytotoxicity), Wild type (wild type soybean; [8]): 98% | Soybean response (percent phytotoxicity), Als1 [3, 4]: 20% | Avg response (% phytotoxicity), Trait Als1 ([3]; 35 g ai/ha): 20% | Soybean response (percent phytotoxicity), Als1 [3, 5]: 50% | Avg response (% phytotoxicity), Trait Als1 ([3]; 70 g ai/ha): 50% | Soybean response (percent phytotoxicity), Als1 [3, 6]: 70% | Avg response (% phytotoxicity), Trait Als1 ([3]; 140 g ai/ha): 70% | Soybean response (percent phytotoxicity), Als1 [3, 7]: 98% | Avg response (% phytotoxicity), Trait Als1 ([3]; 280 g ai/ha): 98% | Soybean response (percent phytotoxicity), Als1 [3, 8]: 97% | Avg response (% phytotoxicity), Trait Als1 ([3]; 560 g ai/ha): 96.5%

CCS(=O)(=O)c1cccnc1S(=O)(=O)NC(=O)Nc1nc(OC)cc(OC)n1 [Rimsulfuron]
Soybean response (percent phytotoxicity), Als2 [1, 9]: 0% | Avg response (% phytotoxicity), Trait Als2 ([1]; 8.75 g ai/ha): 0% | Soybean response (percent phytotoxicity), Als2 [1, 10]: 0% | Avg response (% phytotoxicity), Trait Als2 ([1]; 17.5 g ai/ha): 0% | Soybean response (percent phytotoxicity), Als2 [1, 4]: 20% | Avg response (% phytotoxicity), Trait Als2 ([1]; 35 g ai/ha): 20% | Soybean response (percent phytotoxicity), Als2 [1, 5]: 60% | Avg response (% phytotoxicity), Trait Als2 ([1]; 70 g ai/ha): 60% | Soybean response (percent phytotoxicity), Als2 [1, 6]: 80% | Avg response (% phytotoxicity), Trait Als2 ([1]; 140 g ai/ha): 80% | EC10, Als2 [1, 11]: 23.88 g ai/ha | phytotoxicity (in words), soybean containing only the Als2 gene ([1]; the higher doses): substantial phytotoxicity | Soybean response (percent phytotoxicity), Als1 + Als2 [2, 9]: 0% | Avg response (% phytotoxicity), Trait Als1 + Als2 ([2]; 8.75 g ai/ha): 0% | Soybean response (percent phytotoxicity), Als1 + Als2 [2, 10]: 0% | Avg response (% phytotoxicity), Trait Als1 + Als2 ([2]; 17.5 g ai/ha): 0% | Soybean response (percent phytotoxicity), Als1 + Als2 [2, 4]: 0% | Avg response (% phytotoxicity), Trait Als1 + Als2 ([2]; 35 g ai/ha): 0% | Soybean response (percent phytotoxicity), Als1 + Als2 [2, 5]: 10% | Avg response (% phytotoxicity), Trait Als1 + Als2 ([2]; 70 g ai/ha): 10% | Soybean response (percent phytotoxicity), Als1 + Als2 [2, 6]: 10% | Avg response (% phytotoxicity), Trait Als1 + Als2 ([2]; 140 g ai/ha): 10% | EC10, Als1 + Als2 [2, 11]: 123.22 g ai/ha | tolerance (in words), soybean containing both the Als1 and the Als2 genes ([2]; the higher doses): extremely tolerant | Soybean response (percent phytotoxicity), Wild type (wild type soybean; [9]): 10% | Soybean response (percent phytotoxicity), Wild type (wild type soybean; [10]): 35% | Soybean response (percent phytotoxicity), Wild type (wild type soybean; [4]): 85% | Soybean response (percent phytotoxicity), Wild type (wild type soybean; [5]): 95% | Soybean response (percent phytotoxicity), Wild type (wild type soybean; [6]): 98% | Soybean response (percent phytotoxicity), Als1 [3, 9]: 0% | Avg response (% phytotoxicity), Trait Als1 ([3]; 8.75 g ai/ha): 0% | Soybean response (percent phytotoxicity), Als1 [3, 10]: 0% | Avg response (% phytotoxicity), Trait Als1 ([3]; 17.5 g ai/ha): 0% | Soybean response (percent phytotoxicity), Als1 [3, 4]: 20% | Avg response (% phytotoxicity), Trait Als1 ([3]; 35 g ai/ha): 20% | Soybean response (percent phytotoxicity), Als1 [3, 5]: 40% | Avg response (% phytotoxicity), Trait Als1 ([3]; 70 g ai/ha): 40% | Soybean response (percent phytotoxicity), Als1 [3, 6]: 80% | Avg response (% phytotoxicity), Trait Als1 ([3]; 140 g ai/ha): 80% | EC10, Als1 [3, 11]: 28.61 g ai/ha | phytotoxicity (in words), soybean containing only the Als1 gene ([3]; the higher doses): substantial phytotoxicity
